Experiments:
[1] = system: hGYS1 enzyme / glycogen synthesis in HeLa cells; assay: GYS1 cell based assay (glycogen synthesis, Glucose-glo); set-up: species or system human; details: Homo sapiens, HeLa, 24 h, 24 h incubation, 20 mM glucose, geometric mean of at least 2 runs
Procedure, shortened: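 HeLa cells starved 24 h in medium containing only 1× Glutamax were plated onto compound in medium with 20 mM glucose (1% DMSO final) for 24 h, 37 °C, 5% CO2. Acid lysates were Tris-quenched, glucoamylase-digested (pH 5.3, 1 h, 37 °C) and read by Glucose-glo luminescence. IC50 came from Hill fits, as geometric mean of ≥2 runs.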

[2] = target: hGYS1 enzyme (recombinant hGYS1/GN1 protein) (Homo sapiens (Human), UniProt P13807); assay: GYS1 coupled enzyme assay (PK/LDH); type: biochemical; details: hGYS1/GN1 50 nM, UDP-Glucose 0.8 mM, G6P 1 mM; geometric mean of at least 2 runs
Chain of hGYS1 enzyme (recombinant hGYS1/GN1 protein) (P13807 whole entry): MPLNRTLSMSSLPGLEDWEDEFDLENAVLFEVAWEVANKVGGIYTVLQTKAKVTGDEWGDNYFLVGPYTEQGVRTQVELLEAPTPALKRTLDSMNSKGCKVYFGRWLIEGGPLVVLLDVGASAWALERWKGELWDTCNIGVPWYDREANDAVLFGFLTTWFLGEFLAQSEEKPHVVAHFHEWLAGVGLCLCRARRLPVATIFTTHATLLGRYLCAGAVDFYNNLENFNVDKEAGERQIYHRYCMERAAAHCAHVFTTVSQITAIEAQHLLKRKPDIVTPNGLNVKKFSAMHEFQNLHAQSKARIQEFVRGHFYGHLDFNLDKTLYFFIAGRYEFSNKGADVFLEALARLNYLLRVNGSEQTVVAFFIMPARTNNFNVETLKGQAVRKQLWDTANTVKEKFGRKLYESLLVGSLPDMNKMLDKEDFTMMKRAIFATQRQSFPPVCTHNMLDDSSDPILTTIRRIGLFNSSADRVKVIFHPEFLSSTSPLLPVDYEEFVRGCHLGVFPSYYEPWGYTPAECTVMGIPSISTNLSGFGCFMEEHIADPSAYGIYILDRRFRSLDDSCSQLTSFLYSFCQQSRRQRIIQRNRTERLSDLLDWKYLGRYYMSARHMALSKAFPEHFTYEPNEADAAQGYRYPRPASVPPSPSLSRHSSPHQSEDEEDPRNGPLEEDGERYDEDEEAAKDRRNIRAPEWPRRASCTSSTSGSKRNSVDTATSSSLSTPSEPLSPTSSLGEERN
Chain of hGYS1 enzyme (recombinant hGYS1/GN1 protein) (P46976 whole entry partner): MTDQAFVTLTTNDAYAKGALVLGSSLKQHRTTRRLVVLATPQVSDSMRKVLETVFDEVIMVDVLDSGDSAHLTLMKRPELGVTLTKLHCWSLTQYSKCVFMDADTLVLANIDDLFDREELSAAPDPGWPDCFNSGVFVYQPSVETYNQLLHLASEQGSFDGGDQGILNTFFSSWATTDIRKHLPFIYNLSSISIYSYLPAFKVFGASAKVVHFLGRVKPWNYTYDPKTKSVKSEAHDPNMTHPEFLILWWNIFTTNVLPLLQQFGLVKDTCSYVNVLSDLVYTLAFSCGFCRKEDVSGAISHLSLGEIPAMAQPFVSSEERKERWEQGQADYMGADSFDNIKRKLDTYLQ

[3] = target: hGYS2 enzyme (recombinant hGYS2/GN1 protein) (Homo sapiens (Human), UniProt P54840); assay: GYS2 coupled enzyme assay (PK/LDH); type: biochemical; details: geometric mean of at least 2 assay runs on separate days, read-out: Avg_IC50
Chain of hGYS2 enzyme (recombinant hGYS2/GN1 protein) (P54840 whole entry): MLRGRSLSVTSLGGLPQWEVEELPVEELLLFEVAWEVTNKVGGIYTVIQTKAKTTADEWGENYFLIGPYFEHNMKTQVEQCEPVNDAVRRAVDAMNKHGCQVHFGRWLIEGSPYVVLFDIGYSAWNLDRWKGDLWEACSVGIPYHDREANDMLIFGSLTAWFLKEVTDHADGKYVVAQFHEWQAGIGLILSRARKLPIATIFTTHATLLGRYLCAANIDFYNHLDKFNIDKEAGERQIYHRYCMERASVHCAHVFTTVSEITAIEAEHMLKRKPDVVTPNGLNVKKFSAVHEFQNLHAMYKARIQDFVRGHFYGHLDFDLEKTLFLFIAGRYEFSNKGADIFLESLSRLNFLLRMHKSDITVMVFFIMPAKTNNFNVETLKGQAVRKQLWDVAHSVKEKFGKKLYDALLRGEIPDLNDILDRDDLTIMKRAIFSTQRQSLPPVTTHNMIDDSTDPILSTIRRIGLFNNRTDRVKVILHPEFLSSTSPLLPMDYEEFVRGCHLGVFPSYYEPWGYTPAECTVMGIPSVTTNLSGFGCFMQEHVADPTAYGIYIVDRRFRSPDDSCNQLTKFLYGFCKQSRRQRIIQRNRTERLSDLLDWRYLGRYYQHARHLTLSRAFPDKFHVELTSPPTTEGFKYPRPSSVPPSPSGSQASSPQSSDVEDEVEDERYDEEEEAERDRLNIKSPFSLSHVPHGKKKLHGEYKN
Chain of hGYS2 enzyme (recombinant hGYS2/GN1 protein) (P46976 whole entry partner): as the sequence (P46976 whole entry partner) above
Procedure, shortened: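 IC50 came from Hill fits of duplicate percent inhibition, based on control-normalized slopes of 340 nm NADH decline read each minute for 10 min. The reaction held recombinant hGYS2/GN1 (200 nM) with glycogen, UDP-glucose, G6P and PEP, plus PK/LDH coupling at pH 7.5 and 2.5% DMSO.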

Row | SMILES | IC50 [1] | IC50 [2] | IC50 [3]
1 | CC(C)c1ccc([C@@H](NC(=O)[C@@H]2C[C@@H](F)CN2C(=O)Cc2noc(=O)n2C)c2ccccc2)nc1F [Compound 402, (2S,4R)-4-fluoro-N-[(S)-[6-fluoro-5-(propan-2-yl)pyridin-2-yl](phenyl)methyl]-1-[2-(4-methyl-5-oxo-4,5-dihydro-1,2,4-oxadiazol-3-yl)acetyl]pyrrolidine-2-carboxamide] | 850 nM | 59 nM | > 100000 nM
2 | CC(C)c1ccc([C@@H](NC(=O)[C@@H]2C[C@@H](F)CN2C(=O)Cc2[nH]nnc2C(F)(F)F)c2ccccc2)nc1F [Compound 403, (2S,4R)-4-fluoro-N-[(S)-[6-fluoro-5-(propan-2-yl)pyridin-2-yl](phenyl)methyl]-l-{2-[4-(trifluoromethyl)-1H-1,2,3-triazol-5-yl]acetyl}pyrrolidine-2-carboxamide] | 140 nM | 4 nM | > 100000 nM
3 | Cc1nccc(NCC(=O)N2C[C@H](F)C[C@H]2C(=O)N[C@@H](c2ccccc2)c2ccc(C(C)C)c(F)n2)n1 [Compound 404, (2S,4R)-4-fluoro-N-[(S)-[6-fluoro-5-(propan-2-yl)pyridin-2-yl](phenyl)methyl]-1-{2-[(2-methylpyrimidin-4-yl)amino]acetyl} pyrrolidine-2-carboxamide] | 70 nM | 6 nM | > 100000 nM
4 | CC(C)c1ccc([C@@H](NC(=O)[C@@H]2C[C@@H](F)CN2C(=O)[C@H](C)NC(=O)N(C)C)c2ccccc2)nc1F [Compound 405, (2S,4R)-1-[(2S)-2-[(dimethylcarbamoyl)amino]propanoyl]-4-fluoro-N-[(S)-[6-fluoro-5-(propan-2-yl)pyridin-2-yl](phenyl)methyl] pyrrolidine-2-carboxamide] | 490 nM | 20 nM | > 100000 nM
5 | CC(C)c1ccc([C@@H](NC(=O)[C@@H]2C[C@@H](F)CN2C(=O)[C@@H](C)NC(=O)N(C)C)c2ccccc2)nc1F [Compound 406, (2S,4R)-1-[(2R)-2-[(dimethylcarbamoyl)amino]propanoyl]-4-fluoro-N-[(S)-[6-fluoro-5-(propan-2-yl)pyridin-2-yl](phenyl)methyl] pyrrolidine-2-carboxamide] | 760 nM | 41 nM | > 100000 nM
6 | CC(C)c1ccc([C@@H](NC(=O)[C@@H]2C[C@@H](F)CN2C(=O)Cc2ncco2)c2ccccc2)nc1F [Compound 407, (2S,4R)-4-fluoro-N-[(S)-[6-fluoro-5-(propan-2-yl)pyridin-2-yl](phenyl)methyl]-1-[2-(1,3-oxazol-2-yl)acetyl]pyrrolidine-2-carboxamide] | 420 nM | 15 nM | > 100000 nM
7 | Cc1cnc(CC(=O)N2C[C@H](F)C[C@H]2C(=O)N[C@@H](c2ccccc2)c2ccc(C(C)C)c(F)n2)o1 [Compound 408, (2S,4R)-4-fluoro-N-[(S)-[6-fluoro-5-(propan-2-yl)pyridin-2-yl](phenyl)methyl]-1-[2-(5-methyl-1,3-oxazol-2-yl)acetyl] pyrrolidine-2-carboxamide] | 350 nM | 8 nM | > 100000 nM
8 | Cc1coc(CC(=O)N2C[C@H](F)C[C@H]2C(=O)N[C@@H](c2ccccc2)c2ccc(C(C)C)c(F)n2)n1 [Compound 409, (2S,4R)-4-fluoro-N-[(S)-[6-fluoro-5-(propan-2-yl)pyridin-2-yl](phenyl)methyl]-1-[2-(4-methyl-1,3-oxazol-2-yl)acetyl] pyrrolidine-2-carboxamide] | 290 nM | 10 nM | > 100000 nM
9 | CC(C)c1ccc([C@@H](NC(=O)[C@@H]2C[C@@H](F)CN2C(=O)CNC(=O)N2CC(F)(F)C2)c2ccccc2)nc1F [Compound 410, (2S,4R)-1-{2-[(3,3-difluoroazetidine-1-carbonyl)amino]acetyl}-4-fluoro-N-[(S)-[6-fluoro-5-(propan-2-yl)pyridin-2-yl](phenyl)methyl]pyrrolidine-2-carboxamide] | 130 nM | 8 nM | > 100000 nM
10 | Cc1nn(CC(=O)N2C[C@H](F)C[C@H]2C(=O)N[C@@H](c2ccccc2)c2ccc(C(C)C)c(F)n2)c(=O)o1 [Compound 411, (2S,4R)-4-fluoro-N-[(S)-[6-fluoro-5-(propan-2-yl)pyridin-2-yl](phenyl)methyl)-1-[2-(5-methyl-2-oxo-2,3-dihydro-1,3,4-oxadiazol-3-yl)acetyl]pyrrolidine-2-carboxamide] | 220 nM | 10 nM | > 100000 nM
11 | CC(C)c1ccc([C@@H](NC(=O)[C@@H]2C[C@@H](F)CN2C(=O)Cn2ncc(N3CCC3)n2)c2ccccc2)nc1F [Compound 412, (2S,4R)-1-{2-[4-(azetidin-1-yl)-2H-1,2,3-triazol-2-yl]acetyl}-4-fluoro-N-[(S)-[6-fluoro-5-(propan-2-yl)pyridin-2-yl](phenyl)methyl] pyrrolidine-2-carboxamide] | 120 nM | 7 nM | > 100000 nM
12 | CC(C)c1ccc([C@@H](NC(=O)[C@@H]2C[C@@H](F)CN2C(=O)Cn2ncc(N3CC(F)(F)C3)n2)c2ccccc2)nc1F [Compound 413, (2S,4R)-1-{2-[4-(3,3-difluoroazetidin-1-yl)-2H-1,2,3-triazol-2-yl]acetyl}-4-fluoro-N-[(S)-[6-fluoro-5-(propan-2-yl)pyridin-2-yl](phenyl)methyl] pyrrolidine-2-carboxamide] | 160 nM | 6 nM | > 100000 nM
13 | CCN(CC)c1cnn(CC(=O)N2C[C@H](F)C[C@H]2C(=O)N[C@@H](c2ccccc2)c2ccc(C(C)C)c(F)n2)n1 [Compound 414] | 60 nM | 3 nM | 78700 nM
14 | CC(C)c1ccc([C@@H](NC(=O)[C@@H]2[C@H]3C[C@H]3CN2C(=O)Cc2cnn[nH]2)c2ccccc2)nc1F [Compound 415, (1S,2S,5R)-N-[(S)-[6-fluoro-5-(propan-2-yl)pyridin-2-yl](phenyl)methyl]-3-[2-(1H-1,2,3-triazol-5-yl)acetyl]-3-azabicyclo[3.1.0] hexane-2-carboxamide] | 710 nM | 48 nM | > 100000 nM
15 | CC(C)c1ccc([C@@H](NC(=O)[C@@H]2CC[C@H](C)N2C(=O)Cc2cnn[nH]2)c2ccccc2)nc1F [Compound 416, (2S,5S)-N-[(S)-[6-fluoro-5-(propan-2-yl)pyridin-2-yl](phenyl)methyl]-5-methyl-1-[2-(1H-1,2,3-triazol-5-yl)acetyl]pyrrolidine-2-carboxamide] | 470 nM | 25 nM | > 100000 nM
16 | O=C(N[C@@H](c1ccccc1)c1ccc(C2CC2)c(F)c1)[C@@H]1C[C@@H](F)CN1C(=O)Cn1cnc2ccccc21 [Compound 417, (2S,4R)-1-(2-(1H-benzo[d]imidazol-1-yl)acetyl)-N—((S)-(4-cyclopropyl-3-fluorophenyl)(phenyl)methyl)-4-fluoropyrrolidine-2-carboxamide] | 450 nM | 23 nM | > 100000 nM
17 | CN1CCN(CC(=O)N2C[C@H](F)C[C@H]2C(=O)N[C@@H](c2ccccc2)c2ccc(C3CC3)c(F)c2)C1=O [Compound 425, (2S,4R)-N-[(S)-(4-cyclopropyl-3-fluorophenyl)(phenyl)methyl]-4-fluoro-1-[2-(3-methyl-2-oxoimidazolidin-1-yl)acetyl]pyrrolidine-2-carboxamide] | 3590 nM | 224 nM | > 100000 nM

Reference: patent US11814367B2, “Inhibitors of glycogen synthase 1 (GYS1) and methods of use thereof” (Maze Therapeutics, Inc., priority 2021, dated 2023)
